Data published in patent US8853258B2, “C-linked hydroxamic acid derivatives useful as antibacterial agents” (Pfizer Inc., priority 2009, dated 2014).
In brackets after ≈: the same amount, converted by molar mass. Read-outs that look alike come from different tables or passages of the source.

How the values were obtained:
[1] = target: Pseudomonas aeruginosa LpxC enzyme (Pseudomonas aeruginosa (strain ATCC 15692 / DSM 22644 / CIP 104116 / JCM 14847 / LMG 12228 / 1C / PRS 101 / PAO1), UniProt P47205); assay: IC50 Assay, LpxC Enzyme from P. aeruginosa (PA LpxC Enzyme IC50); format: biochemical
Method: In order to assess the compounds biological activity, selected in-vitro assays were conducted on selected compounds. One of the assays measured the compounds ability to disrupt the synthesis of lipopolysaccharide, LPS, which is a component of the outer membrane of Gram-negative bacteria. Disruption of this synthesis is lethal to the bacteria. The assay determined the compound's ability to inhibit LpxC, which is the first enzyme in the biosynthetic pathway for LPS (measured as IC50). Additionally, MICs (minimal inhibitory concentrations) were determined for several bacteria. The specific protocols are described below:
A) IC50 Assay, LpxC Enzyme from P. aeruginosa (Labled as PA LpxC Enzyme IC50
At the end of 1 hour, 5 ul of 1N HCl was added to stop the enzyme reaction; the plates were centrifuged, and then processed with the BioTrove Rapidfire HTMS Mass Spectrometry System. A no-enzyme control was used in calculating the IC50 values from the percent conversion values.

[2] = tested on: Acinetobacter baumanii/haemolyticus: Multidrug-resistant clinical isolate (AB-3167); assay: MIC determination (CLSI), AB-3167; format: cell-based; conditions: for MIC: Acinetobacter baumannii
Method in brief: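 Multidrug-resistant clinical isolate AB-3167 (A. baumannii/haemolyticus) tested for minimum inhibitory concentration following CLSI dilution susceptibility standards M7-A7 and M100-S18.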

[3] = tested on: Escherichia coli EC-1: VOGEL, mouse virulent; assay: MIC determination (CLSI), EC-1; format: cell-based; conditions: for MIC: Escherichia coli
Method in brief: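 E. coli Vogel, a mouse-virulent strain (EC-1), was tested. MICs were set by dilution susceptibility testing per CLSI standards M7-A7/M100-S18.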

[4] = tested on: Klebsiella pneumoniae: Ciprofloxacin-resistant isolate, ESBL, clinical isolate (KP-3700); assay: MIC determination (CLSI), KP-3700; format: cell-based
Method in brief: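 Strain KP-3700, a clinical isolate producing extended-spectrum β-lactamases and resistant to ciprofloxacin, was tested. Minimum inhibitory concentrations determined via CLSI dilution methodology (M7-A7; M100-S18).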

[5] = tested on: Pseudomonas aeruginosa UI-18: Wild-type (PA-7); assay: MIC determination (CLSI), PA-7; format: cell-based; conditions: for MIC: Pseudomonas aeruginosa
Method in brief: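 Wild-type P. aeruginosa UI-18 tested for minimum inhibitory concentration. Broth/agar dilution following CLSI standards (M7-A7, M100-S18).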

[6] = Table 3, read-out: PA LpxC enzyeme IC^50
[7] = Table 1, read-out: PA LpxC enzyeme IC50
[8] = Table 1, MIC, read-out: AB-3167 (MIC)
[9] = Table 1, MIC, read-out: PA-7 (MIC)
[10] = P. aeruginosa LpxC enzyme, read-out: PA LpxC enzyeme IC50
[11] = Acinetobacter baumanii/haemolyticus AB-3167
[12] = Pseudomonas aeruginosa UI-18 (PA-7)
[13] = Acinetobacter baumanii/haemolyticus multidrug-resistant clinical isolate AB-3167
[14] = Escherichia coli EC-1 VOGEL, mouse virulent
[15] = Pseudomonas aeruginosa UI-18 wild-type PA-7

Row | SMILES | KP-3700 MIC [4] | IC50 [1, 10] | AB-3167 MIC [2, 13] | EC-1 MIC [3, 14] | PA-7 MIC [5, 15] | further results
1 | CC(CCc1ccc(OCCCOc2ccccc2)cc1)(C(=O)NO)S(C)(=O)=O (stereo not drawn) [Example 297, N-hydroxy-2-methyl-2-(methylsulfonyl)-4-[4-(3-phenoxypropoxy)phenyl]butanamide] | ≧64 mg/L | – | – | – | – | IC50 [1, 6]: 42.5 nM; MIC ([2]; Table 3, read-out: AB-3167 MIC): 32 µg/mL (≈ 75.9 µM); MIC ([3]; read-out: EC-1 MIC): 16 µg/mL (≈ 38 µM); MIC ([5]; Table 3, read-out: PA-7 MIC): ≥ 64 µg/mL
2 | CC(=O)NC[C@@H]1CN(c2ccc(-c3ccc(CC[C@](C)(C(=O)NO)S(C)(=O)=O)cc3)c(F)c2)C(=O)O1 [Example 14, (2R)-4-{4′-[(5R)-5-(Acetamidomethyl)-2-oxo-1,3-oxazolidin-3-yl]-2′-fluorobiphenyl-4-yl}-N-hydroxy-2-methyl-2-(methylsulfonyl)butanamide] | ≧64 mg/L | – | – | – | – | IC50 [1, 7]: 1.48 nM; MIC [2, 8]: ≥ 64 µg/mL; MIC ([3]; read-out: EC-1: (MIC)): 16 µg/mL (≈ 30.7 µM); MIC [5, 9]: 32 µg/mL (≈ 61.4 µM)
3 | CC(CCc1ccc(C2=CCOCC2)cc1)(C(=O)NO)S(C)(=O)=O (stereo not drawn) [Example 225] | ≧64 mg/L | 1.88 nM | – | – | – | AB-3167 MIC [2, 11]: ≧64 mg/L; EC-1 MIC ([3]; Escherichia coli EC-1): 32 µg/mL; PA-7 MIC [5, 12]: 4 µg/mL
4 | CC(CCc1ccc(OCc2nc(C3CCC3)no2)cc1)(C(=O)NO)S(C)(=O)=O (stereo not drawn) [Example 300, 4-{4-[(3-cyclobutyl-1,2,4-oxadiazol-5-yl)methoxy]phenyl}-N-hydroxy-2-methyl-2-(methylsulfonyl)butanamide] | 32 µg/mL | – | – | – | – | IC50 [1, 6]: 7.56 nM; MIC ([2]; Table 3, read-out: AB-3167 MIC): ≥ 64 µg/mL; MIC ([3]; read-out: EC-1 MIC): 16 µg/mL (≈ 37.8 µM); MIC ([5]; Table 3, read-out: PA-7 MIC): 32 µg/mL (≈ 75.6 µM)
5 | CC(CCc1ccc(-c2ccc(NS(C)(=O)=O)cc2)c(F)c1)(C(=O)NO)S(C)(=O)=O (stereo not drawn) [Example 209] | 32 µg/mL | 2.04 nM | – | – | – | AB-3167 MIC [2, 11]: ≧64 mg/L; EC-1 MIC ([3]; Escherichia coli EC-1): 8 µg/mL; PA-7 MIC [5, 12]: 8 µg/mL
6 | CC(C)(O)CCc1ccc(-c2ccc(CCC(C)(C(=O)NO)S(C)(=O)=O)cc2)cc1 (stereo not drawn) [Example 158] | 8 µg/mL | 0.644 nM | 32 µg/mL | 0.5 µg/mL | 4 µg/mL | –
7 | CC(CCc1ccc(C2=CCCC2)cc1)(C(=O)NO)S(C)(=O)=O (stereo not drawn) [Example 227] | ≧64 mg/L | 11.4 nM | – | – | – | AB-3167 MIC [2, 11]: ≧64 mg/L; EC-1 MIC ([3]; Escherichia coli EC-1): ≧64 mg/L; PA-7 MIC [5, 12]: 16 µg/mL
8 | CC(=O)c1ccc(-c2ccc(CCC(C)(C(=O)NO)S(C)(=O)=O)cc2)cc1F (stereo not drawn) [Example 184] | 2 µg/mL | 0.155 nM | 32 µg/mL | 4 µg/mL | 0.5 µg/mL | –
9 | CC(CCc1ccc(-c2cccc(Cl)c2Cl)cc1)(C(=O)NO)S(C)(=O)=O (stereo not drawn) [Example 59] | 2 µg/mL | 0.213 nM | 2 µg/mL | 0.5 µg/mL | 2 µg/mL | –
10 | CC(CCc1ccc(OCc2ccc(F)cc2C#N)cc1)(C(=O)NO)S(C)(=O)=O (stereo not drawn) [Example 284, 4-{4-[(2-cyano-4-fluorobenzyl)oxy]phenyl}-N-hydroxy-2-methyl-2-(methylsulfonyl)butanamide] | ≧64 mg/L | – | – | – | – | IC50 [1, 6]: 5.36 nM; MIC ([2]; Table 3, read-out: AB-3167 MIC): ≥ 64 µg/mL; MIC ([3]; read-out: EC-1 MIC): 32 µg/mL (≈ 76.1 µM); MIC ([5]; Table 3, read-out: PA-7 MIC): ≥ 64 µg/mL
11 | C[C@@](CCc1ccc(-c2ccc(O)cc2)cc1)(C(=O)NO)S(C)(=O)=O [Example 23, (2R)—N-hydroxy-4-(4′-hydroxybiphenyl-4-yl)-2-methyl-2-(methylsulfonyl)butanamide] | 8 µg/mL | – | – | – | – | IC50 [1, 7]: 0.18 nM; MIC [2, 8]: ≥ 64 µg/mL; MIC ([3]; read-out: EC-1: (MIC)): 4 µg/mL (≈ 11 µM); MIC [5, 9]: 2 µg/mL (≈ 5.5 µM)
12 | C[C@@](CCc1ccc(-c2ccc(OCCCN3CCCCC3)cc2)cc1)(C(=O)NO)S(C)(=O)=O [Example 220] | 32 µg/mL | 0.467 nM | – | – | – | AB-3167 MIC [2, 11]: ≧64 mg/L; EC-1 MIC ([3]; Escherichia coli EC-1): 8 µg/mL; PA-7 MIC [5, 12]: 16 µg/mL
13 | CC(CCc1ccc(-c2cccc(F)c2)cc1)(C(=O)NO)S(C)(=O)=O (stereo not drawn) [Example 42] | 4 µg/mL | 0.335 nM | ≧64 mg/L | 2 µg/mL | 0.5 µg/mL | –
14 | CSc1cccc(-c2ccc(CCC(C)(C(=O)NO)S(C)(=O)=O)cc2)c1 (stereo not drawn) [Example 56] | 4 µg/mL | 0.417 nM | 8 µg/mL | 2 µg/mL | 2 µg/mL | –
15 | Cc1oc(-c2ccccc2F)nc1COc1ccc(CCC(C)(C(=O)NO)S(C)(=O)=O)cc1 (stereo not drawn) [Example 251, 4-(4-{[2-(2-fluorophenyl)-5-methyl-1,3-oxazol-4-yl]methoxy}phenyl)-N-hydroxy-2-methyl-2-(methylsulfonyl)butanamide] | ≧64 mg/L | – | – | – | – | IC50 [1, 6]: 21.6 nM; MIC ([2]; Table 3, read-out: AB-3167 MIC): ≥ 64 µg/mL; MIC ([3]; read-out: EC-1 MIC): 32 µg/mL (≈ 67.2 µM); MIC ([5]; Table 3, read-out: PA-7 MIC): ≥ 64 µg/mL
16 | CC(CCc1ccc(-c2ccc([N+](=O)[O-])cc2)cc1)(C(=O)NO)S(C)(=O)=O (racemic) [Example 5, (+/−)-N-hydroxy-2-methyl-2-(methylsulfonyl)-4-(4′-nitrobiphenyl-4-yl)butanamide] | 1 µg/mL | – | – | – | – | IC50 [1, 7]: 0.12 nM; MIC [2, 8]: 32 µg/mL (≈ 81.5 µM); MIC ([3]; read-out: EC-1: (MIC)): 0.5 µg/mL (≈ 1.27 µM); MIC [5, 9]: 0.5 µg/mL (≈ 1.27 µM)
17 | Cc1cc(C#N)ccc1-c1ccc(CCC(C)(C(=O)NO)S(C)(=O)=O)cc1 (stereo not drawn) [Example 91] | 8 µg/mL | 0.266 nM | 16 µg/mL | 2 µg/mL | 2 µg/mL | –
18 | CC(=O)c1ccc(-c2ccc(CCC(C)(C(=O)NO)S(C)(=O)=O)c(F)c2)nc1 (stereo not drawn) [Example 187] | 16 µg/mL | 0.632 nM | ≧64 mg/L | 16 µg/mL | 4 µg/mL | –
19 | CC(=O)c1cc(-c2ccc(CCC(C)(C(=O)NO)S(C)(=O)=O)cc2)ccc1O (stereo not drawn) [Example 180] | 16 µg/mL | 0.826 nM | 16 µg/mL | 4 µg/mL | 8 µg/mL | –
20 | Cc1cccc(COc2ccc(CCC(C)(C(=O)NO)S(C)(=O)=O)cc2)c1 (stereo not drawn) [Example 310, N-hydroxy-2-methyl-4-{4-[(3-methylbenzyl)oxy]phenyl}-2-(methylsulfonyl)butanamide] | 8 µg/mL | – | – | – | – | IC50 [1, 6]: 0.883 nM; MIC ([2]; Table 3, read-out: AB-3167 MIC): 16 µg/mL (≈ 40.9 µM); MIC ([3]; read-out: EC-1 MIC): 2 µg/mL (≈ 5.11 µM); MIC ([5]; Table 3, read-out: PA-7 MIC): 4 µg/mL (≈ 10.2 µM)
21 | C[C@@](CCc1ccc(-c2ccc(N)nc2)cc1)(C(=O)NO)S(C)(=O)=O [Example 204] | ≧64 mg/L | 18.2 nM | – | – | – | AB-3167 MIC [2, 11]: ≧64 mg/L; EC-1 MIC ([3]; Escherichia coli EC-1): ≧64 mg/L; PA-7 MIC [5, 12]: 8 µg/mL
22 | CC(CCc1ccc(-c2ccsc2)cc1)(C(=O)NO)S(C)(=O)=O (stereo not drawn) [Example 77] | 16 µg/mL | 0.991 nM | ≧64 mg/L | 8 µg/mL | 2 µg/mL | –
23 | CC(CCc1ccc(-c2ccc(OCCCCO)cc2)cc1)(C(=O)NO)S(C)(=O)=O (stereo not drawn) [Example 136] | 1 µg/mL | 0.205 nM | ≧64 mg/L | 0.125 µg/mL | 1 µg/mL | –
24 | CC(CCc1ccc(OCc2cccnc2)cc1)(C(=O)NO)S(C)(=O)=O (stereo not drawn) [Example 303, N-hydroxy-2-methyl-2-(methylsulfonyl)-4-[4-(pyridin-3-ylmethoxy)phenyl]butanamide] | ≧64 mg/L | – | – | – | – | IC50 [1, 6]: 4.58 nM; MIC ([2]; Table 3, read-out: AB-3167 MIC): ≥ 64 µg/mL; MIC ([3]; read-out: EC-1 MIC): ≥ 64 µg/mL; MIC ([5]; Table 3, read-out: PA-7 MIC): 16 µg/mL (≈ 42.3 µM)
25 | C[C@@](CCc1ccc(-c2ccc(C(=O)N3CCC[C@@H]3CO)cc2)cc1)(C(=O)NO)S(C)(=O)=O [Example 216] | ≧64 mg/L | 4.02 nM | – | – | – | AB-3167 MIC [2, 11]: ≧64 mg/L; EC-1 MIC ([3]; Escherichia coli EC-1): 32 µg/mL; PA-7 MIC [5, 12]: 32 µg/mL
26 | CC(=O)c1ccc(-c2ccc(CC[C@](C)(C(=O)NO)S(C)(=O)=O)cc2)cc1 [Example 182] | 1 µg/mL | 0.0674 nM | 16 µg/mL | 0.5 µg/mL | 0.5 µg/mL | –
27 | CC(CCc1ccc(-c2ccc(F)cc2)cc1O)(C(=O)NO)S(C)(=O)=O (racemic) [Example 19, (+/−)-4-(4′-Fluoro-3-hydroxybiphenyl-4-yl)-N-hydroxy-2-methyl-2-(methylsulfonyl)butanamide] | 32 µg/mL | – | – | – | – | IC50 ([1]; PA LpxC enzyeme IC50, Table 1): 3.43 nM; MIC [2, 8]: ≥ 64 µg/mL; MIC ([3]; read-out: EC-1: (MIC)): 8 µg/mL (≈ 21 µM); MIC [5, 9]: 16 µg/mL (≈ 41.9 µM)
